Test results: ChEMBL document CHEMBL1201862, “PubChem BioAssay data set” (2004)
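Compound exposure: 48 hours, 5 concentrations, 96-well plates. GI50 is the concentration that inhibits growth by half.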 Calls of active or inactive are those of the source. No stated cut-off is given here; in the data, active = GI50 up to about 1.1 µM and inactive = higher.

Assays:
Assay in all cases: DTP human tumour cell line panel, 48 h
HCC 2998 = test system: HCC 2998
HL-60 = test system: HL-60
UO-31 = test system: UO-31
SN12C = test system: SN12C
OVCAR-3 = test system: OVCAR-3
NCI/ADR-RES = test system: NCI/ADR-RES
HOP-62 = test system: HOP-62
OVCAR-8 = test system: OVCAR-8
SK-MEL-28 = test system: SK-MEL-28
CAKI-1 = test system: CAKI-1
SF-268 = test system: SF-268
PC-3 = test system: PC-3
Hs-578T = test system: Hs-578T
EKVX = test system: EKVX
786-0 = test system: 786-0
T47D = test system: T47D
SK-OV-3 = test system: SK-OV-3

Measured: GI50

COC1(OC)CC(CO)(CNc2nc(N)nc(Cl)c2/C=N\O)C1
inactive: HCC 2998 > 100 µM | HL-60 39.3 µM | UO-31 39.2 µM | SN12C 87.7 µM | OVCAR-3 21.7 µM | NCI/ADR-RES 46 µM | HOP-62 23.2 µM | OVCAR-8 54.7 µM | SK-MEL-28 48.9 µM | CAKI-1 57.4 µM | SF-268 > 100 µM | PC-3 55.5 µM | Hs-578T 22.7 µM | EKVX 22.7 µM | 786-0 44.2 µM

NC(=O)N/N=C1\CCCCc2ccccc21
inactive: HCC 2998 > 10 µM | UO-31 > 10 µM | SN12C > 10 µM | OVCAR-3 > 10 µM | NCI/ADR-RES > 10 µM | HOP-62 > 10 µM | T47D > 10 µM | OVCAR-8 > 10 µM | CAKI-1 > 10 µM | SF-268 > 10 µM | PC-3 > 10 µM | EKVX > 10 µM | 786-0 > 10 µM

CC(C)(C)/C(=N\Nc1nc2ccccc2[nH]1)c1ccccn1
inactive: UO-31 42.9 µM | SK-OV-3 > 100 µM | SN12C > 100 µM | OVCAR-3 24.3 µM | NCI/ADR-RES 65.3 µM | HOP-62 > 100 µM | T47D 21 µM | OVCAR-8 > 100 µM | SK-MEL-28 > 100 µM | CAKI-1 48.2 µM | SF-268 > 100 µM | PC-3 81.5 µM | Hs-578T > 100 µM | 786-0 > 100 µM

O=CNNC(=O)Nc1cccc2ccccc12
inactive: HCC 2998 > 100 µM | HL-60 > 100 µM | UO-31 > 100 µM | SK-OV-3 > 100 µM | SN12C > 100 µM | NCI/ADR-RES > 100 µM | HOP-62 > 100 µM | T47D > 100 µM | OVCAR-8 > 100 µM | SK-MEL-28 > 100 µM | SF-268 > 100 µM | Hs-578T > 100 µM | EKVX > 100 µM | 786-0 > 100 µM

O=C(OCCN=C1c2ccccc2CCc2ccccc21)c1cc([N+](=O)[O-])cc([N+](=O)[O-])c1
inactive: HL-60 25.7 µM | UO-31 21.9 µM | SK-OV-3 > 100 µM | SN12C > 31.6 µM | OVCAR-3 23.3 µM | NCI/ADR-RES > 31.6 µM | HOP-62 > 31.6 µM | OVCAR-8 > 31.6 µM | SK-MEL-28 > 31.6 µM | CAKI-1 29.3 µM | SF-268 > 31.6 µM | PC-3 > 31.6 µM | Hs-578T > 31.6 µM | EKVX > 31.6 µM | 786-0 > 31.6 µM

CC1CCC(C(C)C)C(OC(=O)NCn2cc(-c3ccccc3)nn2)C1 (configuration not stated)
inactive: HCC 2998 85.1 µM | HL-60 > 100 µM | SN12C > 100 µM | NCI/ADR-RES > 100 µM | HOP-62 25.6 µM | OVCAR-8 75.5 µM | SK-MEL-28 > 100 µM | CAKI-1 > 100 µM | SF-268 58.7 µM | PC-3 > 100 µM | EKVX > 100 µM | 786-0 41.2 µM

O=C(Nc1nc(C23CC4CC(CC(C4)C2)C3)cs1)c1c(O)c2ccccc2[nH]c1=O
inactive: HCC 2998 > 100 µM | HL-60 > 100 µM | UO-31 > 100 µM | SN12C > 100 µM | OVCAR-3 > 100 µM | NCI/ADR-RES > 100 µM | HOP-62 > 100 µM | OVCAR-8 > 100 µM | SK-MEL-28 > 100 µM | CAKI-1 > 100 µM | SF-268 23.3 µM | PC-3 > 100 µM | Hs-578T > 100 µM | EKVX > 100 µM | 786-0 > 100 µM

C[C@]12C(=O)OC[C@H](c3ccccc3)N1C(=O)N(Cc1ccccc1)[C@@H]2CO
inactive: HCC 2998 > 100 µM | HL-60 > 100 µM | UO-31 > 100 µM | SK-OV-3 > 100 µM | SN12C > 100 µM | OVCAR-3 > 100 µM | NCI/ADR-RES > 100 µM | HOP-62 > 100 µM | OVCAR-8 > 100 µM | SK-MEL-28 > 100 µM | CAKI-1 > 100 µM | SF-268 > 100 µM | PC-3 > 100 µM | Hs-578T > 100 µM | EKVX > 100 µM | 786-0 > 100 µM

CCc1cc2c(oc3cc(C)ccc32)c(=O)n1C
inactive: HCC 2998 > 10 µM | HL-60 > 10 µM | UO-31 > 10 µM | SK-OV-3 > 10 µM | SN12C > 10 µM | OVCAR-3 > 10 µM | T47D > 10 µM | OVCAR-8 > 10 µM | SF-268 > 10 µM | PC-3 > 10 µM | Hs-578T > 10 µM | EKVX > 10 µM | 786-0 > 10 µM

COC(=O)c1cccc(COc2ccc([N+](=O)[O-])cc2Cl)c1
inactive: UO-31 98.9 µM | SK-OV-3 > 100 µM | SN12C 49 µM | OVCAR-3 63.4 µM | NCI/ADR-RES > 100 µM | HOP-62 > 100 µM | T47D > 100 µM | OVCAR-8 > 100 µM | SK-MEL-28 > 100 µM | CAKI-1 56 µM | SF-268 > 100 µM | PC-3 > 100 µM | Hs-578T 60.1 µM | EKVX 37.4 µM | 786-0 > 100 µM
